Data from patent publication US10400274B2, “Fluorogenic probes and their use in quantitative detection of target RNA sequences” (JAN BIOTECH, INC., priority 2016, dated 2019).

Experiments:
[1] = test system: synthetic HIV RNA targets; assay: qLDR probe set testing against synthetic HIV RNA targets; settings: initial testing with synthetic HIV RNA targets
Description: The qLDR reaction contained optimized probe concentrations at 10-100 pM and a total reaction volume of 50 μL. The qLDR reaction for each probe set was optimized against the commensurate synthetic HIV RNA targets using fluorescence microscopy and fluorescence emission in a 96-well format in a desktop fluorometer, with readings normalized to background.

HIV RNA of ACH-2 cells = assay: HIV qLDR on PMA-activated ACH-2 cells in A3.01 cells (latent vs. active); assay type: cell-based; settings: 10 ACH-2 cells in 10^6 A3.01 cells; PMA 1 μM for 0, 3, 8, 24 hr; FIG. 9
Description: For cell line testing (FIG. 9), ACH-2 and A3.01 cells were grown in T-75 flasks and plated at 1 mL per well in a 24-well culture plate in RPMI medium. After the wells reached 60% confluency, cells were activated for 0, 3, 8, and 24 hr with PMA (phorbal 12-myristate 13-acetate) at 1 μM final concentration per well. The experiment was performed such that each activation time endpoint represented the same total growth time. The activated ACH-2 cells were harvested from each well and counted. After preservation and shipping in 90% FBS/10% DMSO at −80° C., the cell suspensions were recounted, diluted and added at 10 cells into 10^6 A3.01 cells activated for the matching time period. HIV qLDR, using probes SEQ ID NO: 9/SEQ ID NO: 10 for 2 kb tat-rev transcripts, SEQ ID NO: 1/SEQ ID NO: 2 for 9 kb transcripts, and SEQ ID NO: 1/SEQ ID NO: 2 and SEQ ID NO: 5/SEQ ID NO: 6 for 4 kb transcripts, was performed on the cells and fluorometric readings in a 96-well plate format were normalized to background. […] Thus, the ratio of cell-based tat-rev to 4 kb/9 kb HIV RNA levels may be a useful measure of latent to active cell number.

HIV pol/protease region = assay: HIV qLDR compared with HIV RT-qPCR on human peripheral blood samples; assay type: cell-based; settings: CD4+ T cells for qLDR, blood plasma for RT-qPCR; FIG. 11
Description: For human sample testing comparison with HIV RT-qPCR (FIG. 11), blood plasma was used for RT-qPCR and CD4+ T cells were used for qLDR. RT-qPCR was performed using primers and probe to the HIV gag-pol region, as described in Livak et al., 1995, for best comparison with HIV qLDR with probes SEQ ID NO: 1/SEQ ID NO: 2 to the HIV pol/protease region. HIV RNA was isolated from blood plasma samples prior to RT-qPCR. An RT-qPCR standard was prepared by in vitro transcription of a synthetic HIV T7 plasmid, and RNA copy number was determined using a standard curve generated with the RT-qPCR standard.

cellular HIV RNA = assay: HIV qLDR on CD4-enriched PBMC lysates from HIV- and HIV+ participants; assay type: cell-based, human; settings: FIG. 10a-b; for detection of cellular HIV RNA in HIV+ HAART (latent) samples / detection of cellular HIV RNA in HIV- samples: CD4-enriched PBMC lysates, 20 mL blood; for detection between latent and HIV+ non-HAART (active) samples: including viremic participants and elite controllers
Description: For human sample testing (FIG. 10a-b) by HIV qLDR, CD4-enriched PBMC from HIV− and HIV+ participants were tested by the HIV qLDR probes SEQ ID NO: 9/SEQ ID NO: 10 for 2 kb tat-rev transcripts and SEQ ID NO: 5/SEQ ID NO: 6 for 9 kb and 4 kb transcripts. Lysates were tested from five individuals/class. Tests were performed in triplicate with 20 mL blood.

**Q.** Which results are given for “SEQ ID NO: 1/SEQ ID NO: 2: fluorogenic probe pair SEQ ID NO: 1 (Ald-1) and 2 (Ind), HIV-1 pol/protease, detects full length 9 kb RNA (chain 1 CCTGTATCTAATAGAGC; chain 2 TCTAATACTGTATCATCT; fluorogenic labels; Latent HIV-1 qLDR Oligonucleotide Probe; (1)..(1) Fluorogenic probe moiety attachment position on probe sequence; (18)..(18) Fluorogenic probe moiety attachment position on probe sequence)”?
**A.** detection efficiency [1]: comparable detection efficiency; change of fluorescence level through activation time course (HIV RNA of ACH-2 cells): marked increase; correlation of HIV qLDR results with HIV RT-PCR viremia results (HIV pol/protease region): closely correlated

**Q.** How did the detection efficiency [1] turn out when “SEQ ID NO: 5/SEQ ID NO: 6: fluorogenic probe pair SEQ ID NO: 5 (Ald-2) and 6 (Ind), HIV-1 gp160/41, detects 4 kb spliced and 9 kb RNA (chain 1 ATAGTGCTTCCTGCT; chain 2 GTCATTGAGGCTGCG; fluorogenic labels; Latent HIV-1 qLDR Oligonucleotide Probe; (1)..(1) Fluorogenic probe moiety attachment position on probe sequence; (15)..(15) Fluorogenic probe moiety attachment position on probe sequence)” was run?
**A.** Its detection efficiency is “comparable detection efficiency”.

**Q.** And the “change of fluorescence level through activation time course” value (HIV RNA of ACH-2 cells)?
**A.** The value was “marked increase”.

**Q.** And the “detection of cellular HIV RNA in HIV+ HAART (latent) samples” value (cellular HIV RNA)?
**A.** The value was “successfully detected”.

**Q.** And the “detection of cellular HIV RNA in HIV- samples” value (cellular HIV RNA)?
**A.** The value was “not in HIV—samples”.

**Q.** What about the “detection between latent and HIV+ non-HAART (active) samples” value (cellular HIV RNA) of the same substance?
**A.** Its value is “differential detection”.

**Q.** With “SEQ ID NO: 9/SEQ ID NO: 10: fluorogenic PNA probe pair SEQ ID NO: 9 (Ald-1) and 10 (Ind), tat-rev, detects spliced 2 kb HIV-1 RNA (chain 1 CTTTG; chain 2 TGGGT; PNA; fluorogenic labels; Latent HIV-1 qLDR Oligonucleotide Probe; (1)..(1) Fluorogenic probe moiety attachment position on probe sequence; (1)..(5) Peptide nucleic acid 5′ Ald-CTTTG-DMLys-DMLys- CONH2; (1)..(5) Peptide nucleic acid 3′ Ind-TGGGT-DMLys-DMLys- CONH2; (5)..(5) Fluorogenic probe moiety attachment position on probe sequence)” as the substance, how does the detection efficiency [1] read?
**A.** Its detection efficiency is “comparable detection efficiency”.

**Q.** What about the “change of fluorescence level through activation time course” value (HIV RNA of ACH-2 cells) of the same substance?
**A.** The value was “relatively little increase”.

**Q.** What about the “detection of cellular HIV RNA in HIV+ HAART (latent) samples” value (cellular HIV RNA) of the same substance?
**A.** The value was “successfully detected”.

**Q.** And the “detection of cellular HIV RNA in HIV- samples” value (cellular HIV RNA)?
**A.** The value was “not in HIV—samples”.

**Q.** What about the “detection between latent and HIV+ non-HAART (active) samples” value (cellular HIV RNA) of the same substance?
**A.** The value was “differential detection”.
